In patent US12398154B2, “Azaquinazoline pan-KRas inhibitors” (Mirati Therapeutics, Inc., priority 2020, dated 2025):

Legend:
KRas G12R = KRas G12R (Homo sapiens, UniProt P01116, G12R); test: biochemical;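 note: TR-FRET displacement assay of compound binding to KRas, read after one hour at room temperature, potency from a four-parameter fit of percent-of-control values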
Description: (§1) The ability of a compound to bind to KRas was measured using a TR-FRET displacement assay. […] After a 60-minute incubation at room temperature, the reaction was measured using a BMG LABTECH CLARIO star Plus via TR-FRET. […] The POC values were fit to a 4-parameter IC50 equation and the IC50 value reported.

KRas G12D = KRas G12D (Homo sapiens, UniProt P01116, G12D); test: biochemical;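 note: TR-FRET displacement binding assay on KRas, read after a one-hour incubation at room temperature, IC50 fitted from percent-of-control values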
Description: as §1

KRas Q61H = target: T1, KRas Q61H (Homo sapiens, UniProt P01116, Q61H); test: KRas binding assay (TR-FRET displacement);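 note: TR-FRET signal read after one hour at room temperature, IC50 derived by four-parameter fitting of percent-of-control values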
T1 construct: Biotinylated KRas (corresponding to amino acids 1-169, produced at Accelegan Inc.); biotin (biotinylated); purchased Accelegan Inc
Description: as §1

KRas G13D = target: T2, KRas G13D (Homo sapiens, UniProt P01116, G13D); test: KRas binding assay (TR-FRET displacement);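 note: One-hour room temperature incubation before TR-FRET reading, IC50 from a four-parameter curve fit to percent-of-control data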
T2 construct: Biotinylated KRas (corresponding to amino acids 1-169, produced at Accelegan Inc.); biotin (biotinylated); purchased Accelegan Inc
Description: as §1

KRas G12A = KRas G12A (Homo sapiens, UniProt P01116, G12A); test: biochemical;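 note: binding to KRas measured by TR-FRET displacement after one hour at room temperature, IC50 from a four-parameter fit of percent-of-control values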
Description: as §1

KRas G12S = KRas G12S (Homo sapiens, UniProt P01116, G12S); test: biochemical;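 note: TR-FRET displacement binding to KRas, read after one hour incubation at room temperature, IC50 from four-parameter fit of percent of control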
Description: as §1

KRas WT = KRas WT (Homo sapiens, UniProt P01116); test: biochemical;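 note: binding to KRas read as TR-FRET displacement after a one-hour room-temperature incubation, IC50 derived from percent-of-control values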
Description: as §1

KRas G12C = KRas G12C (Homo sapiens, UniProt P01116, G12C); test: biochemical;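 note: binding to KRas assessed by TR-FRET displacement after one hour incubation at room temperature, potency fitted from percent-of-control values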
Description: as §1

KRas G12V = KRas G12V (Homo sapiens, UniProt P01116, G12V); test: biochemical;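 note: KRas binding measured by TR-FRET displacement at room temperature, IC50 fitted from percent of control values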
Sequence of KRas G12V (P01116 1-169 isoform P01116-2 G12V): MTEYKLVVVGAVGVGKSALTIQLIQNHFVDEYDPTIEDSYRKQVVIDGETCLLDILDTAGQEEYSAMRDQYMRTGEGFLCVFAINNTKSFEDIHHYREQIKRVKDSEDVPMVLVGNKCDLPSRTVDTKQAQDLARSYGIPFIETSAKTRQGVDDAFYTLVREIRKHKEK
Description: as §1

Sequence of KRas G12D (P01116 1-169 isoform P01116-2 G12D): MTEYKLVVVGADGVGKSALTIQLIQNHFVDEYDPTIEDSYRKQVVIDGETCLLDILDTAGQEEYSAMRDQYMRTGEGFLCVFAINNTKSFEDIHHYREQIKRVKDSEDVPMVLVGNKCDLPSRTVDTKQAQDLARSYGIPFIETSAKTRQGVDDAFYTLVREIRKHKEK
T2 sequence (P01116 1-169 isoform P01116-2 G13D): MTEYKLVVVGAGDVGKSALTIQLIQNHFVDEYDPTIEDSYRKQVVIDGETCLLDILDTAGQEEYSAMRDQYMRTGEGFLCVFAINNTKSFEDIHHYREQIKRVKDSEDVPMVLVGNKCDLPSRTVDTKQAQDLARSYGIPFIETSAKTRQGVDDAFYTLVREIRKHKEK
T1 sequence (P01116 1-169 isoform P01116-2 Q61H): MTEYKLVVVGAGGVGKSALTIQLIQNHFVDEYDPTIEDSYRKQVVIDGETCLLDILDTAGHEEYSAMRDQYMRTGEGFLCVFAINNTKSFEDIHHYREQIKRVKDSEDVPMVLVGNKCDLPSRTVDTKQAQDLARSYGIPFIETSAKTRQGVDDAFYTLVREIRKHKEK
Sequence of KRas G12A (P01116 1-169 isoform P01116-2 G12A): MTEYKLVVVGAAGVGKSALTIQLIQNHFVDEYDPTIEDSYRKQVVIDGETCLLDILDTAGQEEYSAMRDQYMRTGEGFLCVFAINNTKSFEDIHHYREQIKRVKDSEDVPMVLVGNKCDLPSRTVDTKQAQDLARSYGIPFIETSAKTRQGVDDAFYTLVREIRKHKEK
Sequence of KRas G12C (P01116 1-169 isoform P01116-2 G12C): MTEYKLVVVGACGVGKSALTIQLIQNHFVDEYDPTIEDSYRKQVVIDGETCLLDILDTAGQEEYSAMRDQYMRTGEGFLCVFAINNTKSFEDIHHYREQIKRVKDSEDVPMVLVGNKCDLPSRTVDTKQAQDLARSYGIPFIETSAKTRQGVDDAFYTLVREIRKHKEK
Sequence of KRas WT (P01116 1-169 isoform P01116-2): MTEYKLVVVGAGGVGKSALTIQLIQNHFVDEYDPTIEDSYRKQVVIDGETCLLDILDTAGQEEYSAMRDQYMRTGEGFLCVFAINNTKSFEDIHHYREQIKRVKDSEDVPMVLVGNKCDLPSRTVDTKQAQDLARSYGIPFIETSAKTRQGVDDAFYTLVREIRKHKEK
Sequence of KRas G12S (P01116 1-169 isoform P01116-2 G12S): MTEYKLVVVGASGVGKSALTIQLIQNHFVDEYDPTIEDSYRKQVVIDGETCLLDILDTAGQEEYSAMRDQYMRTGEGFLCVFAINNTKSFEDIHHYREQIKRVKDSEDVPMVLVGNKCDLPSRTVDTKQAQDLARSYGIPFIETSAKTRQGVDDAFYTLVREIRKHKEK
Sequence of KRas G12R (P01116 1-169 isoform P01116-2 G12R): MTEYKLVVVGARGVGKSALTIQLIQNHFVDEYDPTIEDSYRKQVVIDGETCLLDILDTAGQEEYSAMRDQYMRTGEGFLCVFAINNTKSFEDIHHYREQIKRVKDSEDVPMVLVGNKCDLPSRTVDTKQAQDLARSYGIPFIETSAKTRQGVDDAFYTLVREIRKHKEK

SMILES	IC50 (KRas G12R)	IC50 (KRas G12D)	IC50 (KRas Q61H)	IC50 (KRas G13D)	IC50 (KRas G12A)	IC50 (KRas G12S)	IC50 (KRas WT)	IC50 (KRas G12C)	IC50 (KRas G12V)
Cn1ncc2ccc(Nc3nc(OCC45CCCN4CCC5)nc4c(F)c(-c5cccc6cccc(F)c56)ncc34)cc21 [Example 99, 8-fluoro-7-(8-fluoronaphthalen-1-yl)-2-((hexahydro-1H-pyrrolizin-7a-yl)methoxy)-N-(1-methyl-1H-indazol-6-yl)pyrido[4,3-d]pyrimidin-4-amine]	16.7 µM	≥ 100 µM	98500 nM	59800 nM	13.6 µM	21.7 µM	32.4 µM	8.33 µM	3.97 µM
Fc1c(-c2cccc3cccc(F)c23)ncc2c(Nc3ccc4[nH]ncc4c3)nc(OCC34CCCN3CCC4)nc12 [Example 100, 8-fluoro-7-(8-fluoronaphthalen-1-yl)-2-((hexahydro-1H-pyrrolizin-7a-yl)methoxy)-N-(1H-indazol-5-yl)pyrido[4,3-d]pyrimidin-4-amine]	≥ 100 µM	11.8 µM	42000 nM	49300 nM	50.4 µM	28.8 µM	40.3 µM	39.9 µM	17.3 µM
O=C1CC(CNc2nc(OCC34CCCN3CCC4)nc3c(F)c(-c4cccc5cccc(Cl)c45)ncc23)CN1 (stereo not drawn) [Example 102, 4-(((7-(8-chloronaphthalen-1-yl)-8-fluoro-2-((tetrahydro-1H-pyrrolizin-7a(5H)-yl)methoxy)pyrido[4,3-d]pyrimidin-4-yl)amino)methyl)pyrrolidin-2-one]	0.479 µM	2.29 µM	1180 nM	769 nM	0.634 µM	0.191 µM	1.17 µM	0.399 µM	0.365 µM
Oc1nc(CCCNc2nc(OCC34CCCN3CCC4)nc3c(F)c(-c4cccc5cccc(Cl)c45)ncc23)n[nH]1 [Example 103, 3-(3-((7-(8-chloronaphthalen-1-yl)-8-fluoro-2-((tetrahydro-1H-pyrrolizin-7a(5H)-yl)methoxy)pyrido[4,3-d]pyrimidin-4-yl)amino)propyl)-1H-1,2,4-triazol-5-ol]	1.5 µM	15.5 µM	4940 nM	4210 nM	2.09 µM	2.45 µM	3.95 µM	1.89 µM	1.83 µM
OCc1n[nH]c(CNc2nc(OCC34CCCN3CCC4)nc3c(F)c(-c4cccc5cccc(Cl)c45)ncc23)n1 [Example 105, (5-(((7-(8-chloronaphthalen-1-yl)-8-fluoro-2-((tetrahydro-1H-pyrrolizin-7a(5H)-yl)methoxy)pyrido[4,3-d]pyrimidin-4-yl)amino)methyl)-1H-1,2,4-triazol-3-yl)methanol]	5.92 µM	9.05 µM	13800 nM	13800 nM	6.7 µM	5.75 µM	8.01 µM	3.51 µM	2.81 µM
O=C1NCC(CNc2nc(OCC34CCCN3CCC4)nc3c(F)c(-c4cccc5cccc(F)c45)ncc23)O1 (stereo not drawn) [Example 110, 5-(((8-fluoro-7-(8-fluoronaphthalen-1-yl)-2-((tetrahydro-1H-pyrrolizin-7a(5H)-yl)methoxy)pyrido[4,3-d]pyrimidin-4-yl)amino)methyl)oxazolidin-2-one]	2.48 µM	26.9 µM	10100 nM	9330 nM	9.28 µM	4.37 µM	8.81 µM	5.22 µM	3.97 µM
Fc1c(-c2cccc3cccc(F)c23)ncc2c(N3CCCC4(CC4)C3)nc(OCC34CCCN3CCC4)nc12 [Example 114, 8-fluoro-7-(8-fluoronaphthalen-1-yl)-4-(5-azaspiro[2.5]octan-5-yl)-2-((tetrahydro-1H-pyrrolizin-7a(5H)-yl)methoxy)pyrido[4,3-d]pyrimidine]	3.75 µM	4.38 µM	43300 nM	29900 nM	2.64 µM	2.81 µM	2.71 µM	2.48 µM	2.86 µM
Fc1c(-c2cccc3cccc(F)c23)ncc2c(NCCc3c[nH]nn3)nc(OCC34CCCN3CCC4)nc12 [Example 115, N-(2-(1H-1,2,3-triazol-4-yl)ethyl)-8-fluoro-7-(8-fluoronaphthalen-1-yl)-2-((tetrahydro-1H-pyrrolizin-7a(5H)-yl)methoxy)pyrido[4,3-d]pyrimidin-4-amine]	4.64 µM	30.9 µM	22300 nM	21200 nM	10.5 µM	10.9 µM	11.6 µM	6.56 µM	5.8 µM

Further lines, results first:

IC50 (KRas G12R)	IC50 (KRas G12D)	IC50 (KRas Q61H)	IC50 (KRas G13D)	IC50 (KRas G12A)	IC50 (KRas G12S)	IC50 (KRas WT)	IC50 (KRas G12C)	IC50 (KRas G12V)	SMILES
0.615 µM	15.3 µM	2580 nM	4230 nM	0.994 µM	1.34 µM	3.03 µM	0.679 µM	0.966 µM	Fc1c(-c2cccc3cccc(Cl)c23)ncc2c(N3CC(n4ccnc4)C3)nc(OCC34CCCN3CCC4)nc12 [Example 101, 4-(3-(1H-imidazol-1-yl)azetidin-1-yl)-7-(8-chloronaphthalen-1-yl)-8-fluoro-2-((tetrahydro-1H-pyrrolizin-7a(5H)-yl)methoxy)pyrido[4,3-d]pyrimidine]
2.82 µM	7.61 µM	3210 nM	3640 nM	1.74 µM	2.02 µM	2.33 µM	2.3 µM	2.87 µM	Fc1c(-c2cccc3cccc(Cl)c23)ncc2c(N3CCCC3c3cn[nH]c3)nc(OCC34CCCN3CCC4)nc12 (stereo not drawn) [Example 104, 4-(2-(1H-pyrazol-4-yl)pyrrolidin-1-yl)-7-(8-chloronaphthalen-1-yl)-8-fluoro-2-((tetrahydro-1H-pyrrolizin-7a(5H)-yl)methoxy)pyrido[4,3-d]pyrimidine]
1.51 µM	3.63 µM	2340 nM	2340 nM	0.722 µM	0.369 µM	2.1 µM	1.13 µM	0.612 µM	OC1CC2CC(C1)N(c1nc(OCC34CCCN3CCC4)nc3c(F)c(-c4cccc5cccc(Cl)c45)ncc13)C2 (stereo not drawn) [Example 106, 6-(7-(8-chloronaphthalen-1-yl)-8-fluoro-2-((tetrahydro-1H-pyrrolizin-7a(5H)-yl)methoxy)pyrido[4,3-d]pyrimidin-4-yl)-6-azabicyclo[3.2.1]octan-3-ol]
4.62 µM	10.8 µM	8780 nM	8790 nM	6.52 µM	6.85 µM	8.53 µM	3.52 µM	3.41 µM	NC(=O)N1CC(Nc2nc(OCC34CCCN3CCC4)nc3c(F)c(-c4cccc5cccc(Cl)c45)ncc23)C1 [Example 107, 3-((7-(8-chloronaphthalen-1-yl)-8-fluoro-2-((tetrahydro-1H-pyrrolizin-7a(5H)-yl)methoxy)pyrido[4,3-d]pyrimidin-4-yl)amino)azetidine-1-carboxamide]
4.11 µM	10.2 µM	4940 nM	4340 nM	4.28 µM	7.39 µM	3.99 µM	4.25 µM	7.43 µM	Fc1c(-c2cccc3cccc(Cl)c23)ncc2c(N3CCCC(n4cccn4)C3)nc(OCC34CCCN3CCC4)nc12 (stereo not drawn) [Example 109, 4-(3-(1H-pyrazol-1-yl)piperidin-1-yl)-7-(8-chloronaphthalen-1-yl)-8-fluoro-2-((tetrahydro-1H-pyrrolizin-7a(5H)-yl)methoxy)pyrido[4,3-d]pyrimidine]
28.1 µM	37.5 µM	20700 nM	13300 nM	25.3 µM	31 µM	36.6 µM	27.5 µM	25.9 µM	C[C@@H]1C[C@@H](O)CN(c2nc(OCC34CCCN3CCC4)nc3c(F)c(-c4cccc5cccc(F)c45)ncc23)C1 [Example 112, (3R,5R)-1-(8-fluoro-7-(8-fluoronaphthalen-1-yl)-2-((tetrahydro-1H-pyrrolizin-7a(5H)-yl)methoxy)pyrido[4,3-d]pyrimidin-4-yl)-5-methylpiperidin-3-ol]
16 µM	14.2 µM	12200 nM	12100 nM	9.48 µM	10.6 µM	8.47 µM	7.11 µM	12 µM	OCC1CCCN(c2nc(OCC34CCCN3CCC4)nc3c(F)c(-c4cccc5cccc(F)c45)ncc23)C1 (stereo not drawn) [Example 113, (1-(8-fluoro-7-(8-fluoronaphthalen-1-yl)-2-((tetrahydro-1H-pyrrolizin-7a(5H)-yl)methoxy)pyrido[4,3-d]pyrimidin-4-yl)piperidin-3-yl)methanol]
6.27 µM	3.31 µM	5200 nM	2700 nM	2.74 µM	3.59 µM	3.45 µM	4.41 µM	4.09 µM	CC1CC(O)CCN(c2nc(OCC34CCCN3CCC4)nc3c(F)c(-c4cccc5cccc(F)c45)ncc23)C1 (stereo not drawn) [Example 116, 1-(8-fluoro-7-(8-fluoronaphthalen-1-yl)-2-((tetrahydro-1H-pyrrolizin-7a(5H)-yl)methoxy)pyrido[4,3-d]pyrimidin-4-yl)-6-methylazepan-4-ol]
